Patent US7138361B2, “Herbicidal heterocycles” (E. I. du Pont de Nemours and Company, priority 2000, dated 2006)

Columns and labels:
Type in all cases: in vivo
[1] = test system: smallflower flatsedge (Cyperus difformis); experiment: Test C flooded paddy test; details: for Flatsedge plant response rating: Flooded Paddy, scale 0 to 100, 0 no effect, 100 complete control; for Plant response rating, Flatsedge / Plant response rating (scale 0 to 100), Flatsedge: flooded paddy test; for Plant response rating, Flatsedge: scale 0 to 100 (0 no effect, 100 complete control)
Summary of the method: (§1)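 Visual ratings (0 = no effect, 100 = complete control) were made 12–14 days after treatment, relative to greenhouse controls. Plants in the flooded paddy test were rice, smallflower flatsedge, duck salad and barnyardgrass, treated at the 2-leaf stage.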

rice (Oryza saliva) [2] = experiment: Test C flooded paddy test; details: for Rice plant response rating: Flooded Paddy, scale 0 to 100, 0 no effect, 100 complete control; for Plant response rating, Rice / Plant response rating (scale 0 to 100), Rice: flooded paddy test; for Plant response rating, Rice: scale 0 to 100 (0 no effect, 100 complete control)
Summary of the method: as §1

[3] = test system: barnyardgrass (Echinochloa crus-galli); experiment: Test C flooded paddy test; details: for Barnyardgrass plant response rating: Flooded Paddy, scale 0 to 100, 0 no effect, 100 complete control; for Plant response rating, Barnyardgrass / Plant response rating (scale 0 to 100), Barnyardgrass: flooded paddy test; for Plant response rating, Barnyardgrass: scale 0 to 100 (0 no effect, 100 complete control)
Summary of the method: as §1

[4] = test system: duck salad (Heteranthera limosa); experiment: Test C flooded paddy test; details: for Ducksalad plant response rating: Flooded Paddy, scale 0 to 100, 0 no effect, 100 complete control; for Plant response rating, Ducksalad / Plant response rating (scale 0 to 100), Ducksalad: flooded paddy test; for Plant response rating, Ducksalad: scale 0 to 100 (0 no effect, 100 complete control)
Summary of the method: as §1

Sunflower [5] = experiment: Test C preemergence; details: Rate 500 g/ha, visual evaluation after 12 to 14 days
[6] = test system: woolly cupgrass (Eriochloa villosa); experiment: Test C preemergence; details: for Plant response rating (0 to 100), Cupgrass, Woolly: Rate 500 g/ha, visual evaluation after 12 to 14 days
Summary of the method: (§2)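 Visual 0–100 rating vs controls (0 = no effect, 100 = complete control) at 12–14 d, greenhouse. Compounds in non-phytotoxic solvent + surfactant; pre: sprayed after seeding; post: 1–4-leaf plants, 2–18 cm.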

[7] = test system: pigweed (Amaranthus retroflexus); experiment: Test C preemergence; details: for Plant response rating (0 to 100), Pigweed: Rate 500 g/ha, visual evaluation after 12 to 14 days
Summary of the method: as §2

[8] = test system: velvetleaf (Abutilon theophrasti); experiment: Test C preemergence; details: for Plant response rating (0 to 100), Velvetleaf: Rate 500 g/ha, visual evaluation after 12 to 14 days
Summary of the method: as §2

Sunflower [9] = experiment: Test C preemergence; details: Rate 125 g/ha; scale 0 to 100, 0 no effect, 100 complete control
[10] = test system: giant foxtail (Setaria faberii); experiment: Test B preemergence
Summary of the method: (§3)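 Ratings on a 0 to 100 visual scale (100 complete control) compare treated plants with controls 13 to 15 days after application. Treatments were pre- or postemergence sprays of compound in non-phytotoxic solvent with surfactant.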

[11] = test system: cocklebur (Xanthium strumarium); experiment: Test B preemergence
Summary of the method: as §3

corn (Zea mays) = experiment: Test B preemergence
Summary of the method: as §3

[12] = test system: Surinam grass (Brachiaria decumbens); experiment: Test B preemergence
Summary of the method: as §3

[13] = test system: morning glory (Ipomoea hederacea); experiment: Test B preemergence
Summary of the method: as §3

rice (Oryza saliva) [14] = experiment: Test B preemergence
Summary of the method: as §3

[15] = test system: barnyardgrass (Echinochloa crus-galli); experiment: Test B preemergence
Summary of the method: as §3

[16] = test system: pigweed (Amaranthus retroflexus); experiment: Test B preemergence
Summary of the method: as §3

[17] = test system: lambsquarters (Chenopodium album); experiment: Test B preemergence
Summary of the method: as §3

[18] = test system: velvetleaf (Abutilon theophrasti); experiment: Test B preemergence
Summary of the method: as §3

[19] = test system: crabgrass (Digitaria sanguinalis); experiment: Test B preemergence
Summary of the method: as §3

Sunflower [20] = experiment: Test C preemergence; details: Rate 62 g/ha, scale 0 to 100
Nightshade = experiment: Test C preemergence; details: Rate 500 g/ha, visual evaluation after 12 to 14 days
[21] = Rate 16 g/ha, visually evaluated after 12 to 14 days, 0 = no effect, 100 = complete control
[22] = Rate 62 g/ha, visually evaluated after 12 to 14 days, 0 = no effect, 100 = complete control
[23] = under head Rate 16 g/ha, (own rate not given), after 12 to 14 days
[24] = Rate 125 g/ha, scale 0 to 100, 0 no effect, 100 complete control
[25] = preemergence, Rate 62 g/ha, scale 0 to 100
[26] = preemergence, Rate 250 g/ha, scale 0 to 100, 0 no effect, 100 complete control
[27] = Preemergence, Rate 500 g/ha, scale 0 to 100, 0 no effect, 100 complete control
[28] = preemergence, Rate 125 g/ha, scale of 0 to 100 where 0 is no effect and 100 is complete control, 13 to 15 days

CCC(CC)c1ccn(C2OCN(c3cccc(OC(F)F)c3)C2=O)n1 (stereo not shown) [Compound 131]
Flatsedge plant response rating ([1]; Rate 250 g/ha): 100 | Flatsedge plant response rating ([1]; Rate 500 g/ha): 100 | Plant response rating, Flatsedge ([1]; Rate 125 g/ha): 100 | Plant response rating (scale 0 to 100), Flatsedge [1, 21]: 90 | Plant response rating (scale 0 to 100), Flatsedge [1, 22]: 90 | Plant response rating (scale 0 to 100), Flatsedge [1, 23]: 90 | Rice plant response rating (rice (Oryza saliva) [2]; Rate 250 g/ha): 80 | Rice plant response rating (rice (Oryza saliva) [2]; Rate 500 g/ha): 90 | Plant response rating, Rice (rice (Oryza saliva) [2]; Rate 125 g/ha): 15 | Plant response rating (scale 0 to 100), Rice (rice (Oryza saliva) [2]; [21]): 0 | Plant response rating (scale 0 to 100), Rice (rice (Oryza saliva) [2]; [22]): 0 | Plant response rating (scale 0 to 100), Rice (rice (Oryza saliva) [2]; [23]): 0 | Barnyardgrass plant response rating ([3]; Rate 250 g/ha): 100 | Barnyardgrass plant response rating ([3]; Rate 500 g/ha): 100 | Plant response rating, Barnyardgrass ([3]; Rate 125 g/ha): 100 | Plant response rating (scale 0 to 100), Barnyardgrass [3, 21]: 60 | Plant response rating (scale 0 to 100), Barnyardgrass [3, 22]: 100 | Plant response rating (scale 0 to 100), Barnyardgrass [3, 23]: 50 | Ducksalad plant response rating ([4]; Rate 250 g/ha): 100 | Ducksalad plant response rating ([4]; Rate 500 g/ha): 100 | Plant response rating, Ducksalad ([4]; Rate 125 g/ha): 100 | Plant response rating (scale 0 to 100), Ducksalad [4, 21]: 70 | Plant response rating (scale 0 to 100), Ducksalad [4, 22]: 80 | Plant response rating (scale 0 to 100), Ducksalad [4, 23]: 20 | Plant response rating (0 to 100), Sunflower (Sunflower [5]): 20 | Plant response rating, Cupgrass, Woolly [6, 24]: 100 | Plant response rating, Cupgrass, Woolly [6, 25]: 100 | Plant response rating (0 to 100), Cupgrass, Woolly ([6]; preemergence): 100 | Plant response rating, Cupgrass, Woolly [6, 26]: 100 | Plant response rating, Pigweed [7, 24]: 90 | Plant response rating, Pigweed [7, 25]: 90 | Plant response rating (0 to 100), Pigweed ([7]; preemergence): 100 | Plant response rating, Pigweed [7, 26]: 100 | Plant response rating, Velvetleaf [8, 24]: 30 | Plant response rating, Velvetleaf [8, 25]: 20 | Plant response rating (0 to 100), Velvetleaf ([8]; preemergence): 70 | Plant response rating, Velvetleaf [8, 26]: 70 | Plant response rating, Sunflower (Sunflower [9]): 20 | Plant response rating, Foxtail, Giant [10, 27]: 100 | Plant response rating, Foxtail, Giant [10, 28]: 100 | Plant response rating, Cocklebur [11, 27]: 30 | Plant response rating, Cocklebur [11, 28]: 0 | Plant response rating, Corn (corn (Zea mays); [27]): 50 | Plant response rating, Corn (corn (Zea mays); [28]): 40 | Plant response rating, Surinam grass [12, 27]: 100 | Plant response rating, Surinam grass [12, 28]: 100 | Plant response rating, Morningglory [13, 27]: 90 | Plant response rating, Morningglory [13, 28]: 0 | Plant response rating, Rice (rice (Oryza saliva) [14]; [27]): 100 | Plant response rating, Rice (rice (Oryza saliva) [14]; [28]): 70 | Plant response rating, Barnyardgrass [15, 27]: 100 | Plant response rating, Barnyardgrass [15, 28]: 100 | Plant response rating, Pigweed [16, 27]: 100 | Plant response rating, Pigweed [16, 28]: 100 | Plant response rating, Lambsquarters [17, 27]: 100 | Plant response rating, Lambsquarters [17, 28]: 100 | Plant response rating, Velvetleaf [18, 27]: 40 | Plant response rating, Velvetleaf [18, 28]: 0 | Plant response rating, Crabgrass [19, 27]: 100 | Plant response rating, Crabgrass [19, 28]: 100 | Plant response rating, Sunflower (Sunflower [20]): 20 | Plant response rating (0 to 100), Nightshade (Nightshade): 100

CC(C)(C)c1ccn(C2OCN(c3cccc(OC(F)F)c3)C2=O)n1 (stereo not shown) [Compound 133]
Flatsedge plant response rating ([1]; Rate 500 g/ha): 100 | Plant response rating, Flatsedge ([1]; Rate 125 g/ha): 100 | Plant response rating, Flatsedge ([1]; Rate 250 g/ha): 100 | Plant response rating (scale 0 to 100), Flatsedge [1, 22]: 100 | Rice plant response rating (rice (Oryza saliva) [2]; Rate 500 g/ha): 90 | Plant response rating, Rice (rice (Oryza saliva) [2]; Rate 125 g/ha): 70 | Plant response rating, Rice (rice (Oryza saliva) [2]; Rate 250 g/ha): 90 | Plant response rating (scale 0 to 100), Rice (rice (Oryza saliva) [2]; [22]): 60 | Barnyardgrass plant response rating ([3]; Rate 500 g/ha): 100 | Plant response rating, Barnyardgrass ([3]; Rate 125 g/ha): 90 | Plant response rating, Barnyardgrass ([3]; Rate 250 g/ha): 100 | Plant response rating (scale 0 to 100), Barnyardgrass [3, 22]: 90 | Ducksalad plant response rating ([4]; Rate 500 g/ha): 100 | Plant response rating, Ducksalad ([4]; Rate 125 g/ha): 100 | Plant response rating, Ducksalad ([4]; Rate 250 g/ha): 100 | Plant response rating (scale 0 to 100), Ducksalad [4, 22]: 50 | Plant response rating (0 to 100), Sunflower (Sunflower [5]): 0 | Plant response rating, Cupgrass, Woolly [6, 24]: 100 | Plant response rating, Cupgrass, Woolly [6, 25]: 100 | Plant response rating (0 to 100), Cupgrass, Woolly ([6]; preemergence): 100 | Plant response rating, Cupgrass, Woolly [6, 26]: 100 | Plant response rating, Pigweed [7, 24]: 100 | Plant response rating, Pigweed [7, 25]: 50 | Plant response rating (0 to 100), Pigweed ([7]; preemergence): 100 | Plant response rating, Pigweed [7, 26]: 100 | Plant response rating, Velvetleaf [8, 24]: 20 | Plant response rating, Velvetleaf [8, 25]: 0 | Plant response rating (0 to 100), Velvetleaf ([8]; preemergence): 30 | Plant response rating, Velvetleaf [8, 26]: 20 | Plant response rating, Sunflower (Sunflower [9]): 0 | Plant response rating, Foxtail, Giant [10, 27]: 100 | Plant response rating, Foxtail, Giant [10, 28]: 100 | Plant response rating, Cocklebur [11, 27]: 0 | Plant response rating, Cocklebur [11, 28]: 0 | Plant response rating, Corn (corn (Zea mays); [27]): 90 | Plant response rating, Corn (corn (Zea mays); [28]): 0 | Plant response rating, Surinam grass [12, 27]: 100 | Plant response rating, Surinam grass [12, 28]: 100 | Plant response rating, Morningglory [13, 27]: 0 | Plant response rating, Morningglory [13, 28]: 0 | Plant response rating, Rice (rice (Oryza saliva) [14]; [27]): 100 | Plant response rating, Rice (rice (Oryza saliva) [14]; [28]): 90 | Plant response rating, Barnyardgrass [15, 27]: 100 | Plant response rating, Barnyardgrass [15, 28]: 100 | Plant response rating, Pigweed [16, 27]: 100 | Plant response rating, Pigweed [16, 28]: 100 | Plant response rating, Lambsquarters [17, 27]: 100 | Plant response rating, Lambsquarters [17, 28]: 100 | Plant response rating, Velvetleaf [18, 28]: 0 | Plant response rating, Crabgrass [19, 27]: 100 | Plant response rating, Crabgrass [19, 28]: 100 | Plant response rating, Sunflower (Sunflower [20]): 0 | Plant response rating (0 to 100), Nightshade (Nightshade): 90
